Test results from US5925369A, “Bis alkanoyl esters of carnitine having bactericidal, fungicidal and antiprotozoal activity” (priority 1996, dated 1999).
Where two headings read alike, the source gives them in different places.

Tests used:
B. pumilus = experiment: MIC on Gram positive bacteria; format: cell-based; conditions: Bacillus pumilus; B. pumilus CN 607, lab collection; read-out: Minimal Inhibitory Concentration
Method: (§1) Bacterial suspensions are prepared from an overnight culture in Mueller-Hinton broth and are adjusted, in the same medium, to a final concentration of 5.0×10^4 cells/ml in each well of a 96-well microtiter plate. Substance dilutions (0.3 log) in Mueller-Hinton broth are added to the suspensions in order to have a range of final concentrations from 0.19 to 100 mcg/ml.
(§2) Microtiters are then incubated at 37° C. for 18 hours. (See L. D. THRUPP, Susceptibility testing of antibiotics in liquid media, in: Antibiotics in laboratory medicine. V. LORIAN Ed., II edition, 4, 93-150, Williams & Wilkins, Baltimora, Md. 21202 U.S.A.).

Micrococcus sp. = experiment: MIC on Gram positive bacteria; format: cell-based; conditions: Micrococcus sp. IDI 3502, clinical isolate (pustule, scalp); read-out: Minimal Inhibitory Concentration
Method: as §1, §2

[1] = test system: S. aureus (Staph. aureus); experiment: MIC on Gram positive bacteria; format: cell-based; conditions: Staphylococcus aureus, read-out: Minimal Inhibitory Concentration
Method: as §1, §2

[2] = test system: S. faecalis (Strept. faecalis); experiment: MIC on Gram positive bacteria; format: cell-based; conditions: Enterococcus faecalis, read-out: Minimal Inhibitory Concentration
Method: as §1, §2

Staph. capitis = experiment: MIC on Gram positive bacteria; format: cell-based; conditions: Staphylococcus capitis; Staph. capitis IDI 3502, clinical isolate (pustule, scalp); read-out: Minimal Inhibitory Concentration
Method: as §1, §2

Staph. epider. = experiment: MIC on Gram positive bacteria; format: cell-based; conditions: Staph. epider. IDI 3482, clinical isolate (suppurative wound); read-out: Minimal Inhibitory Concentration
Method: as §1, §2

Staph. sp. = experiment: MIC on Gram positive bacteria; format: cell-based; conditions: Staph. sp. SG1 II, clinical isolate; read-out: Minimal Inhibitory Concentration
Method: as §1, §2

Staph. warneri = experiment: MIC on Gram positive bacteria; format: cell-based; conditions: Staphylococcus warneri; Staph. warneri IDI 3482, clinical isolate (suppurative wound); read-out: Minimal Inhibitory Concentration
Method: as §1, §2

Strept. sp. = experiment: MIC on Gram positive bacteria; format: cell-based; conditions: Strept. sp. SG 7 II, clinical isolate; read-out: Minimal Inhibitory Concentration
Method: as §1, §2

Bacteroides fragilis = experiment: MIC on anaerobic bacteria; format: cell-based; conditions: ATCC25285; Bacteroides fragilis ATCC 25285, anaerobic, Gram negative, lab collection; read-out: Minimal Inhibitory Concentration
Method: (§3) Bacteria from cultures in […].) medium on Petri dishes, grown overnight at 35° C. in an anaerobic jar, were resuspended in Brucella broth. The suspensions were adjusted to 1.0×10^8 cells/ml and distributed (0.2 ml/well) in microtiter plates (96-well U-bottomed plate). At the same time, 0.3 log dilutions of the substances are mixed with W. C. agar medium in four-sectioned Petri dishes, which are then seeded with the bacterial suspension by means of a multipoint inoculator (1.0×10^5 cells/spot). The plates are then incubated at 35° C. for 48 hours in an anaerobic jar) (See J. E. ROSENBLATT, Antimicrobial susceptibility testing of anaerobes, in Antibiotics in laboratory medicine. V. LORIAN Ed., II edition, 6, 159-180, Williams & Wilkins, Baltimora, Md 21202 U.S.A.).

Eubacterium lentum = experiment: MIC on anaerobic bacteria; format: cell-based; conditions: Eggerthella lenta; Eubacterium lentum IDI 3502, anaerobic, Gram positive clinical isolate (suppurative wound); read-out: Minimal Inhibitory Concentration
Method: as §3

Propionibacterium acnes = experiment: MIC on anaerobic bacteria; format: cell-based; conditions: Cutibacterium acnes; Propionibacterium acnes IDI 3482, anaerobic, Gram positive clinical isolate (suppurative acne); read-out: Minimal Inhibitory Concentration
Method: as §3

mouse scarified skin = experiment: Dermal tolerability after repeated treatments (10 days) on mouse scarified skin; format: in vivo, CD1 mice; conditions: 1% gel; for Cracking (C), mean score / Desquamation (D), mean score / Erythema (E), mean score: scale 0-3, 50 mg/day
Method: Male CD1 mice (C. RIVER), aged 6 weeks, were used (5 animals per group).
Substance formulations (1% of test article) were prepared in gel (Hydroxyethyl-cellulose, 2.5 gr.; Glycerin, 7.0 gr.; Propylene Glycol, 7.0 gr.; water up to 100 ml).
The central dorsal zone of the animals was first shaved, and then gently abraded with a scalpel blade. Treatment was performed 1 day following the dermal abrasion by administering 50 mg of each substance formulation once a day, for 10 consecutive days. The treated skin areas were examined at 5, 7, 9, and 11 days following scarification. The evaluation was based upon grading of the lesions as […] (E), DESQUAMATION (D), and CRACKING (C), according to the following scale:
The mean of the values of each parameter in the same animal group allowed us to evaluate the tissue damage provoked by the substance under examination.

[3] = S. aureus 306 MR, lab collection
[4] = Staph. aureus IDI 3530, clinical isolate (ulcer)
[5] = Staph. aureus IDI 3593, clinical isolate (ulcer)
[6] = Staph. aureus SG II, clinical isolate
[7] = S. faecalis 501, lab collection
[8] = S. faecalis 509, lab collection
[9] = Strept. faecalis IDI 3580, clinical isolate (ulcer)

CCCCCCCCCCCOC(=O)C[C@H](C[N+](C)(C)C)OC(=O)CC(C)C [ST 1103, isovaleryl L-carnitine undecyl ester methanesulfonate, reference compound] was tested, and the MIC (B. pumilus) was 3.12 µg/mL, the MIC (Micrococcus sp.) was 3.12 µg/mL and the MIC ([1]; S. aureus 303, lab collection) was 6.25 µg/mL. For the same compound, the MIC [1, 3] was 6.25 µg/mL, the MIC [1, 4] was 3.12 µg/mL and the MIC [1, 5] was 3.12 µg/mL. The MIC [1, 6] was 3.12 µg/mL, the MIC [2, 7] was 3.12 µg/mL and the MIC [2, 8] was 1.56 µg/mL. The MIC [2, 9] was 6.25 µg/mL, the MIC (Staph. capitis) was 3.12 µg/mL and the MIC (Staph. epider.) was 1.56 µg/mL. It also gave an MIC (Staph. sp.) of 6.25 µg/mL, an MIC (Staph. warneri) of 6.25 µg/mL and an MIC (Strept. sp.) of 3.12 µg/mL. It also gave an MIC (Bacteroides fragilis) of 25 µg/mL, an MIC (Eubacterium lentum) of 3.12 µg/mL and an MIC (Propionibacterium acnes) of 6.25 µg/mL. The “Cracking (C), mean score” value (mouse scarified skin; day +5) was 0, the “Desquamation (D), mean score” value (mouse scarified skin; day +5) was 0.4 and the “Erythema (E), mean score” value (mouse scarified skin; day +5) was 1.2. The “Cracking (C), mean score” value (mouse scarified skin; day +7) was 0, the “Desquamation (D), mean score” value (mouse scarified skin; day +7) was 0.4 and the “Erythema (E), mean score” value (mouse scarified skin; day +7) was 0.4. For the same compound, the “Cracking (C), mean score” value (mouse scarified skin; day +9) was 0, the “Desquamation (D), mean score” value (mouse scarified skin; day +9) was 0 and the “Erythema (E), mean score” value (mouse scarified skin; day +9) was 0. The “Cracking (C), mean score” value (mouse scarified skin; day +11) was 0, the “Desquamation (D), mean score” value (mouse scarified skin; day +11) was 0 and the “Erythema (E), mean score” value (mouse scarified skin; day +11) was 0.
Compound CCCCCCCCCCC(=O)O[C@H](CC(=O)OCc1ccc(COC(=O)C[C@H](C[N+](C)(C)C)OC(=O)CCCCCCCCCC)cc1)C[N+](C)(C)C [ST 1226, bis(undecanoyl L-carnitine chloride)p-xylilene diester] has an MIC (B. pumilus) of 1.56 µg/mL, an MIC (Micrococcus sp.) of 1.56 µg/mL and an MIC ([1]; S. aureus 303, lab collection) of 3.12 µg/mL. It also gave an MIC [1, 3] of 3.12 µg/mL, an MIC [1, 4] of 3.12 µg/mL and an MIC [1, 5] of 3.12 µg/mL. For the same compound, the MIC [1, 6] was 3.12 µg/mL, the MIC [2, 7] was 3.12 µg/mL and the MIC [2, 8] was 1.56 µg/mL. It also gave an MIC [2, 9] of 6.25 µg/mL, an MIC (Staph. capitis) of 1.56 µg/mL and an MIC (Staph. epider.) of 3.12 µg/mL. For the same compound, the MIC (Staph. sp.) was 3.12 µg/mL, the MIC (Staph. warneri) was 3.12 µg/mL and the MIC (Strept. sp.) was 3.12 µg/mL. It also gave an MIC (Bacteroides fragilis) of 12.5 µg/mL, an MIC (Eubacterium lentum) of 6.25 µg/mL and an MIC (Propionibacterium acnes) of 6.25 µg/mL. For the same compound, the “dermal tolerability compared with ST 1103” value (mouse scarified skin; 10 days) was “better tolerated than ST1103”, the “Cracking (C), mean score” value (mouse scarified skin; day +5) was 0 and the “Desquamation (D), mean score” value (mouse scarified skin; day +5) was 0. The “Erythema (E), mean score” value (mouse scarified skin; day +5) was 0.2, the “Cracking (C), mean score” value (mouse scarified skin; day +7) was 0 and the “Desquamation (D), mean score” value (mouse scarified skin; day +7) was 0. The “Erythema (E), mean score” value (mouse scarified skin; day +7) was 0, the “Cracking (C), mean score” value (mouse scarified skin; day +9) was 0 and the “Desquamation (D), mean score” value (mouse scarified skin; day +9) was 0. For the same compound, the “Erythema (E), mean score” value (mouse scarified skin; day +9) was 0, the “Cracking (C), mean score” value (mouse scarified skin; day +11) was 0 and the “Desquamation (D), mean score” value (mouse scarified skin; day +11) was 0. The “Erythema (E), mean score” value (mouse scarified skin; day +11) was 0.
